# Tested on: HCC1937
# Assay: normalised response (% of control), CellTiter-Glo; higher = more viable cells (100 = DMSO, 0 = benzethonium chloride kill control)
# Conditions: incubation time: 72 h
# Outline: (§1)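 After 72 h with compound in 384-well plates, breast cancer cell lines seeded as 20 µl suspension were read for CellTox Green fluorescence at 485/520 nm. CellTiter-Glo luminescence was then read after 10 min at room temperature. Compound was present at 5 concentrations in 10-fold steps over a 10,000-fold range set per compound, and plates were normalised to 0.1 % DMSO (100) and a positive kill control (0). Values are normalised signals, each at a single concentration.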
row,SMILES,normalised response
1,Oc1ncc(N(CCCl)CCCl)c(O)n1 [Uracil mustard] (10 nM),99.7%
2,N#Cc1ccc(C(c2ccc(C#N)cc2)n2cncn2)cc1 [Letrozole] (10 nM),97.6%
3,Nc1nc(F)nc2c1ncn2[C@@H]1O[C@H](CO)[C@@H](O)[C@@H]1O [Fludarabine] (10 nM),107%
4,CCCCC(=O)OCC(=O)[C@]1(O)Cc2c(O)c3c(c(O)c2[C@@H](O[C@H]2C[C@H](NC(=O)C(F)(F)F)[C@H](O)[C@H](C)O2)C1)C(=O)c1c(OC)cccc1C3=O [Valrubicin] (5 nM),102%
5,COc1cc([C@@H]2c3cc4c(cc3[C@@H](O[C@@H]3O[C@@H]5CO[C@@H](c6cccs6)O[C@H]5[C@H](O)[C@H]3O)[C@H]3COC(=O)[C@H]23)OCO4)cc(OC)c1O [Teniposide] (10 nM),101%
6,CCc1cncnc1N1CCN(Cc2nc3ccc(C(F)(F)F)cc3[nH]2)CC1 (10 nM),98.1%
7,Cc1ccc(-c2cc(C(F)(F)F)nn2-c2ccc(S(N)(=O)=O)cc2)cc1 [Celecoxib] (10 nM),98.3%
8,Cc1cnc(NC(=O)Nc2cc(Br)c(C)cc2OC[C@@H]2CNCCO2)cn1 [Rabusertib] (1 nM),106%
9,Nc1ncn([C@H]2C[C@H](O)[C@@H](CO)O2)c(=O)n1 [Decitabine] (10 nM),94.6%
10,Nc1ccccc1NC(=O)c1ccc(CNC(=O)OCc2cccnc2)cc1 [Entinostat] (10 nM),99.5%
11,O=C(O)C1(C(=O)O)CCC1.[NH2-].[NH2-].[Pt+2] [Carboplatin] (10 nM),96.6%

# Tested on: HDQ-P1
# Assay: as above
# Conditions: incubation time: 72 h
# Outline: as §1
row,SMILES,normalised response
1,Oc1ncc(N(CCCl)CCCl)c(O)n1 [Uracil mustard] (10 nM),95.1%
2,N#Cc1ccc(C(c2ccc(C#N)cc2)n2cncn2)cc1 [Letrozole] (10 nM),97.8%
3,Nc1nc(F)nc2c1ncn2[C@@H]1O[C@H](CO)[C@@H](O)[C@@H]1O [Fludarabine] (10 nM),97%
4,CCCCC(=O)OCC(=O)[C@]1(O)Cc2c(O)c3c(c(O)c2[C@@H](O[C@H]2C[C@H](NC(=O)C(F)(F)F)[C@H](O)[C@H](C)O2)C1)C(=O)c1c(OC)cccc1C3=O [Valrubicin] (5 nM),95.5%
5,COc1cc([C@@H]2c3cc4c(cc3[C@@H](O[C@@H]3O[C@@H]5CO[C@@H](c6cccs6)O[C@H]5[C@H](O)[C@H]3O)[C@H]3COC(=O)[C@H]23)OCO4)cc(OC)c1O [Teniposide] (10 nM),95.3%
6,CCc1cncnc1N1CCN(Cc2nc3ccc(C(F)(F)F)cc3[nH]2)CC1 (10 nM),98.8%
7,Cc1ccc(-c2cc(C(F)(F)F)nn2-c2ccc(S(N)(=O)=O)cc2)cc1 [Celecoxib] (10 nM),98.1%
8,Cc1cnc(NC(=O)Nc2cc(Br)c(C)cc2OC[C@@H]2CNCCO2)cn1 [Rabusertib] (1 nM),90.4%
9,Nc1ncn([C@H]2C[C@H](O)[C@@H](CO)O2)c(=O)n1 [Decitabine] (10 nM),98.8%
10,Nc1ccccc1NC(=O)c1ccc(CNC(=O)OCc2cccnc2)cc1 [Entinostat] (10 nM),97.5%
11,O=C(O)C1(C(=O)O)CCC1.[NH2-].[NH2-].[Pt+2] [Carboplatin] (10 nM),96.9%

# Tested on: Hs578T
# Assay: as above
# Conditions: incubation time: 72 h
# Outline: as §1
row,SMILES,normalised response
1,Oc1ncc(N(CCCl)CCCl)c(O)n1 [Uracil mustard] (10 nM),107%
2,N#Cc1ccc(C(c2ccc(C#N)cc2)n2cncn2)cc1 [Letrozole] (10 nM),103%
3,Nc1nc(F)nc2c1ncn2[C@@H]1O[C@H](CO)[C@@H](O)[C@@H]1O [Fludarabine] (10 nM),105%
4,CCCCC(=O)OCC(=O)[C@]1(O)Cc2c(O)c3c(c(O)c2[C@@H](O[C@H]2C[C@H](NC(=O)C(F)(F)F)[C@H](O)[C@H](C)O2)C1)C(=O)c1c(OC)cccc1C3=O [Valrubicin] (5 nM),102%
5,COc1cc([C@@H]2c3cc4c(cc3[C@@H](O[C@@H]3O[C@@H]5CO[C@@H](c6cccs6)O[C@H]5[C@H](O)[C@H]3O)[C@H]3COC(=O)[C@H]23)OCO4)cc(OC)c1O [Teniposide] (10 nM),100%
6,CCc1cncnc1N1CCN(Cc2nc3ccc(C(F)(F)F)cc3[nH]2)CC1 (10 nM),107%
7,Cc1ccc(-c2cc(C(F)(F)F)nn2-c2ccc(S(N)(=O)=O)cc2)cc1 [Celecoxib] (10 nM),107%
8,Cc1cnc(NC(=O)Nc2cc(Br)c(C)cc2OC[C@@H]2CNCCO2)cn1 [Rabusertib] (1 nM),102%
9,Nc1ncn([C@H]2C[C@H](O)[C@@H](CO)O2)c(=O)n1 [Decitabine] (10 nM),96.3%
10,Nc1ccccc1NC(=O)c1ccc(CNC(=O)OCc2cccnc2)cc1 [Entinostat] (10 nM),102%
11,O=C(O)C1(C(=O)O)CCC1.[NH2-].[NH2-].[Pt+2] [Carboplatin] (10 nM),101%

# Tested on: MCF-10A
# Assay: as above
# Conditions: incubation time: 72 h
# Outline: as §1
row,SMILES,normalised response
1,Oc1ncc(N(CCCl)CCCl)c(O)n1 [Uracil mustard] (10 nM),106%
2,N#Cc1ccc(C(c2ccc(C#N)cc2)n2cncn2)cc1 [Letrozole] (10 nM),108%
3,Nc1nc(F)nc2c1ncn2[C@@H]1O[C@H](CO)[C@@H](O)[C@@H]1O [Fludarabine] (10 nM),116%
4,CCCCC(=O)OCC(=O)[C@]1(O)Cc2c(O)c3c(c(O)c2[C@@H](O[C@H]2C[C@H](NC(=O)C(F)(F)F)[C@H](O)[C@H](C)O2)C1)C(=O)c1c(OC)cccc1C3=O [Valrubicin] (5 nM),106%
5,COc1cc([C@@H]2c3cc4c(cc3[C@@H](O[C@@H]3O[C@@H]5CO[C@@H](c6cccs6)O[C@H]5[C@H](O)[C@H]3O)[C@H]3COC(=O)[C@H]23)OCO4)cc(OC)c1O [Teniposide] (10 nM),98.8%
6,CCc1cncnc1N1CCN(Cc2nc3ccc(C(F)(F)F)cc3[nH]2)CC1 (10 nM),113%
7,Cc1ccc(-c2cc(C(F)(F)F)nn2-c2ccc(S(N)(=O)=O)cc2)cc1 [Celecoxib] (10 nM),105%
8,Cc1cnc(NC(=O)Nc2cc(Br)c(C)cc2OC[C@@H]2CNCCO2)cn1 [Rabusertib] (1 nM),105%
9,Nc1ncn([C@H]2C[C@H](O)[C@@H](CO)O2)c(=O)n1 [Decitabine] (10 nM),98.5%
10,Nc1ccccc1NC(=O)c1ccc(CNC(=O)OCc2cccnc2)cc1 [Entinostat] (10 nM),109%
11,O=C(O)C1(C(=O)O)CCC1.[NH2-].[NH2-].[Pt+2] [Carboplatin] (10 nM),103%

# Tested on: MDA-MB-231
# Assay: as above
# Conditions: incubation time: 72 h
# Outline: as §1
row,SMILES,normalised response
1,Oc1ncc(N(CCCl)CCCl)c(O)n1 [Uracil mustard] (10 nM),105%
2,N#Cc1ccc(C(c2ccc(C#N)cc2)n2cncn2)cc1 [Letrozole] (10 nM),101%
3,Nc1nc(F)nc2c1ncn2[C@@H]1O[C@H](CO)[C@@H](O)[C@@H]1O [Fludarabine] (10 nM),109%
4,CCCCC(=O)OCC(=O)[C@]1(O)Cc2c(O)c3c(c(O)c2[C@@H](O[C@H]2C[C@H](NC(=O)C(F)(F)F)[C@H](O)[C@H](C)O2)C1)C(=O)c1c(OC)cccc1C3=O [Valrubicin] (5 nM),97%
5,COc1cc([C@@H]2c3cc4c(cc3[C@@H](O[C@@H]3O[C@@H]5CO[C@@H](c6cccs6)O[C@H]5[C@H](O)[C@H]3O)[C@H]3COC(=O)[C@H]23)OCO4)cc(OC)c1O [Teniposide] (10 nM),99.4%

# Source: the supplement of paper PMC4862054
